Drawing on patent US20230233569A1 (Revolution Medicines, Inc., priority 2020, published 2023), this text covers IC50 and EC50 for 6 molecules.

The term IC50 denotes the midpoint of a concentration-inhibition curve. In general, EC50 refers to the concentration giving half of the maximal effect.

A value given as a limit tells only on which side of the number the result lay.

In one experiment the target is KRAS G12C (Homo sapiens, UniProt P01116+P62937, G12C). Kind of experiment: Ras-Raf disruption / FRET / MOA assay (BRAF RBD). Format: biochemical. The settings on record: KRAS G12C FRET data IC50, Ras-Raf disruption, with Cyclophilin A. An outline of the steps: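 His6-K-Ras G12C-GMPPNP (12.5 nM), GST-BRAF RBD (50 nM) and tagless Cyclophilin A (25 μM) incubated 3 h at 25 °C with compound (10-point 3-fold series from 30 μM), pH 7.3 HEPES buffer. Anti-His Eu/anti-GST APC added for 1.5 h; decreased TR-FRET ratio vs DMSO gives IC50.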

Experiment [1] has as its system AsPC-1 (K-Ras G12D). Kind of experiment: Potency assay: pERK. Format: cell-based. The settings on record: Homo sapiens, ASPC1, read-out: pERK EC50.
The subject of experiment [2] is AsPC-1 (K-Ras G12D). Briefly: CellTiter-Glo cell viability assay. Format: cell-based. The settings on record: Homo sapiens, ASPC1, 120 h, read-out: AsPC-1 Cell Viability assay data IC50, K-Ras G12D, 5-day treatment. The procedure:
Determination of Cell Viability in RAS Mutant Cancer Cell Lines
Protocol: CellTiter-Glo® Cell Viability Assay
Note—The following protocol describes a procedure for monitoring cell viability of K-Ras mutant cancer cell lines in response to a compound of the invention. Other RAS isoforms may be employed, though the number of cells to be seeded will vary based on cell line used.
Test compounds (132.5 nL) were directly dispensed into the assay plates containing cells. […] On day 5, assay plates and their contents were equilibrated to room temperature for approximately 30 minutes. […] Luminescence was measured using the PerkinElmer Enspire. Data were normalized by the following: (Sample signal/Avg. DMSO)*100. The data were fit using a four-parameter logistic fit.
Background: In ATP-based viability assays light output follows the ATP content of the culture.

For a further experiment, the target named is KRAS G12D (Homo sapiens, UniProt P01116+P62937, G12D). Briefly: Ras-Raf disruption / FRET / MOA assay (BRAF RBD). The conditions noted are these: KRAS G12D FRET data IC50, Ras-Raf disruption, with Cyclophilin A. Format: biochemical. An outline of the steps:
(§1)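 TR-FRET in 25 mM HEPES pH 7.3, 100 mM NaCl, 5 mM MgCl2, 0.1% BSA, 0.002% Tween20 with 25 μM Cyclophilin A, 12.5 nM His6-Ras-GMPPNP, 50 nM GST-BRAF RBD; compound 10-point 3-fold series from 30 μM. After 3 h at 25 °C, Eu anti-His/APC anti-GST added for 1.5 h; IC50 from ratio decrease versus DMSO.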

In a further experiment the target is KRAS G12S (Homo sapiens, UniProt P01116+P62937, G12S). Briefly: Ras-Raf disruption / FRET / MOA assay (BRAF RBD). Format: biochemical. The settings on record: KRAS G12S FRET data IC50, Ras-Raf disruption, with Cyclophilin A. The gist of the method: as §1
The next experiment has as its target NRAS G12C (Homo sapiens, UniProt P01111+P62937, G12C). Briefly: Ras-Raf disruption / FRET / MOA assay (BRAF RBD). Format: biochemical. The conditions noted are these: NRAS G12C FRET data IC50, NRAS G12C. The gist of the method:
as §1

Another experiment addresses KRAS WT (Homo sapiens, UniProt P01116+P62937). Kind of experiment: Ras-Raf disruption / FRET / MOA assay (BRAF RBD). Format: biochemical. The conditions noted are these: KRAS WT FRET data IC50, Ras-Raf disruption, with Cyclophilin A. The gist of the method: as §1
The target in another experiment is KRAS G12V (Homo sapiens, UniProt P01116+P62937, G12V). Kind of experiment: Ras-Raf disruption / FRET / MOA assay (BRAF RBD). Format: biochemical. The conditions noted are these: KRAS G12V FRET data IC50, Ras-Raf disruption, with Cyclophilin A. The gist of the method:
as §1

The target of another experiment is KRAS G13C (Homo sapiens, UniProt P01116+P62937, G13C). Kind of experiment: Ras-Raf disruption / FRET / MOA assay (BRAF RBD). The conditions noted are these: KRAS G13C FRET data IC50, Ras-Raf disruption, with Cyclophilin A. Format: biochemical. An outline of the steps:
as §1

The next experiment addresses KRAS G13D (Homo sapiens, UniProt P01116+P62937, G13D). Briefly: Ras-Raf disruption / FRET / MOA assay (BRAF RBD). Format: biochemical. The conditions noted are these: KRAS G13D FRET data IC50, Ras-Raf disruption, with Cyclophilin A. An outline of the steps: as §1

Chain of KRAS G12C (P01116 1-169 isoform P01116-2 G12C limits assumed): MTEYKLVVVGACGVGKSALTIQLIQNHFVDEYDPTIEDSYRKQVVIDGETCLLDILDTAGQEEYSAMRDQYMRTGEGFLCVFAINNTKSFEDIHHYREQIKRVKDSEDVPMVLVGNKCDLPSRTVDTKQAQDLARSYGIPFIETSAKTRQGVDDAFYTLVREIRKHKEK
Chain of KRAS G12C (P62937 whole entry): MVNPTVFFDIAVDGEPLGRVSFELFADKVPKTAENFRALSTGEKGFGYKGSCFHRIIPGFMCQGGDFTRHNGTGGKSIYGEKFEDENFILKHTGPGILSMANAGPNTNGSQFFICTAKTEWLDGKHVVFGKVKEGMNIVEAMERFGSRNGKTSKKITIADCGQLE
Chain of KRAS G12D (P01116 1-169 isoform P01116-2 G12D limits assumed): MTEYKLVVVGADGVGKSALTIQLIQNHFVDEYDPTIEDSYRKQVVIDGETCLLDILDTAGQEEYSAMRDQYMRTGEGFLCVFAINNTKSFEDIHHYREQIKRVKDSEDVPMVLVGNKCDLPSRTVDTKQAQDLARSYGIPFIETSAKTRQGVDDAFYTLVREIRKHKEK
Chain of KRAS G12D (P62937 whole entry): as the sequence (P62937 whole entry) above
Chain of KRAS G12V (P01116 1-169 isoform P01116-2 G12V limits assumed): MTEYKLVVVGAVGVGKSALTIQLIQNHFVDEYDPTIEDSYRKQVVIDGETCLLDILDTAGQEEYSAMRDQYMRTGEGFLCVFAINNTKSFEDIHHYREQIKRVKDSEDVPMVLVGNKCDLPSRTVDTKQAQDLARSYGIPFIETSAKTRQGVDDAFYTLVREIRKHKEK
Chain of KRAS G12V (P62937 whole entry): as the sequence (P62937 whole entry) above
Chain of KRAS WT (P01116 1-169 isoform P01116-2 limits assumed): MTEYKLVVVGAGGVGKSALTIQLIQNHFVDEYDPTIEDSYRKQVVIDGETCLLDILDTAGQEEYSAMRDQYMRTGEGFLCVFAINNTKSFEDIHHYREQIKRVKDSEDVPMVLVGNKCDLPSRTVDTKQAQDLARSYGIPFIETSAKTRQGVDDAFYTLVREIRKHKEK
Chain of KRAS WT (P62937 whole entry): as the sequence (P62937 whole entry) above
Chain of KRAS G12S (P01116 1-169 isoform P01116-2 G12S limits assumed): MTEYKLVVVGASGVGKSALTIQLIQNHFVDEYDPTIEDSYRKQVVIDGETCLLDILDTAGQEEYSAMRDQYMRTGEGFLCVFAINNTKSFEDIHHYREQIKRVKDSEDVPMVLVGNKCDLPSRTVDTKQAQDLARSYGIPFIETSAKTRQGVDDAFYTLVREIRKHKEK
Chain of KRAS G12S (P62937 whole entry): as the sequence (P62937 whole entry) above
Chain of KRAS G13D (P01116 1-169 isoform P01116-2 G13D limits assumed): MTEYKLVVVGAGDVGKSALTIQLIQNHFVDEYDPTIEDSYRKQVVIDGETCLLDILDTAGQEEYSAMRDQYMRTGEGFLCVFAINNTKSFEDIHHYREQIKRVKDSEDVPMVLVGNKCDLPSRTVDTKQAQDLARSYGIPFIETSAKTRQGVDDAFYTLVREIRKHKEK
Chain of KRAS G13D (P62937 whole entry): as the sequence (P62937 whole entry) above
Chain of NRAS G12C (P01111 whole entry G12C): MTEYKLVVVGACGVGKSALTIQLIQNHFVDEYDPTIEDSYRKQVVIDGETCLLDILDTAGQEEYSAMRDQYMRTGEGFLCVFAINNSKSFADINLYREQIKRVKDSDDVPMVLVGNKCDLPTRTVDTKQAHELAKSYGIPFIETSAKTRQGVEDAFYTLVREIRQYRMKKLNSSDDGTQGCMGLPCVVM
Chain of NRAS G12C (P62937 whole entry): as the sequence (P62937 whole entry) above
Chain of KRAS G13C (P01116 1-169 isoform P01116-2 G13C limits assumed): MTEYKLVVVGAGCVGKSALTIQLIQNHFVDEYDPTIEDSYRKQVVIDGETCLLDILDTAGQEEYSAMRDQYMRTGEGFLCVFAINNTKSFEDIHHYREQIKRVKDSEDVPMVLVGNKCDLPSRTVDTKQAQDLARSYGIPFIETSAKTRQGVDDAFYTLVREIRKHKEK
Chain of KRAS G13C (P62937 whole entry): as the sequence (P62937 whole entry) above

At KRAS G12C, `CCn1c(-c2cnccc2COC)c2c3cc(ccc31)-c1cc(O)cc(c1)C[C@H](NC(=O)[C@H](C(C)C)N(C)C(=O)CN(C)C(=O)C1CN1)C(=O)N1CCC[C@H](N1)C(=O)OCC(C)(C)C2` (some centres unmarked) [Example 33] showed an IC50 of 10 to 100 nM. In addition, the EC50 with AsPC-1 (K-Ras G12D) [1] is under 5000 nM.

As for `CCn1c(-c2cnccc2COC)c2c3cc(ccc31)-c1cc(O)cc(c1)C[C@H](NC(=O)[C@H](C(C)C)N(C)C(=O)CN(C)C(=O)[C@H]1N[C@H]1C(=O)OC)C(=O)N1CCC[C@H](N1)C(=O)OCC(C)(C)C2` [Example 51], in the experiment on AsPC-1 (K-Ras G12D) [2], the IC50 is over 10000 nM. Besides, the EC50 with AsPC-1 (K-Ras G12D) [1] was under 5000 nM.

For the molecule `CCn1c(-c2cnccc2COC)c2c3cc(ccc31)-c1cc(O)cc(c1)C[C@H](NC(=O)[C@H](C(C)C)N(C)C(=O)CN(C)C(=O)[C@H]1N[C@H]1C1CC1)C(=O)N1CCC[C@H](N1)C(=O)OCC(C)(C)C2` [Example 104], in the experiment on AsPC-1 (K-Ras G12D) [2], the 50% inhibitory concentration (IC50) is 1000 to 10000 nM. Besides, the EC50 with AsPC-1 (K-Ras G12D) [1] is under 5000 nM.

Regarding `CCn1c(-c2cnccc2COC)c2c3cc(ccc31)-c1cc(O)cc(c1)C[C@H](NC(=O)[C@H](C(C)C)N(C)C(=O)CN(C)C(=O)[C@@H]1N[C@@H]1C)C(=O)N1CCC[C@H](N1)C(=O)OCC(C)(C)C2` [Example 105], the IC50 in the experiment on AsPC-1 (K-Ras G12D) [2] was 1000 to 10000 nM. The EC50 in the experiment with AsPC-1 (K-Ras G12D) [1] was under 5000 nM.

For the molecule `CCn1c(-c2cnccc2COC)c2c3cc(ccc31)-c1cc(O)cc(c1)C[C@H](NC(=O)[C@H](C(C)C)N(C)C(=O)CN(C)C(=O)[C@@H]1N[C@@H]1c1ccccc1)C(=O)N1CCC[C@H](N1)C(=O)OCC(C)(C)C2` [Example 110], the IC50 with AsPC-1 (K-Ras G12D) [2] lay in the range of 1000 to 10000 nM. For the same molecule, in the experiment with AsPC-1 (K-Ras G12D) [1], the EC50 was under 5000 nM.

With `CCn1c(-c2cccnc2[C@H](C)OC)c2c3cc(ccc31)-c1cc(O)cc(c1)C[C@H](NC(=O)[C@H](C(C)C)N(C)C(=O)[C@@H](C)N(C)C(=O)[C@H]1CN1)C(=O)N1CCC[C@H](N1)C(=O)OCC(C)(C)C2` [Example 114], the IC50 with AsPC-1 (K-Ras G12D) [2] lay in the range of 1000 to 10000 nM; against KRAS G12C, 10 to 100 nM; on KRAS G12D, 1000 to 10000 nM; against KRAS G12S it was 1000 to 10000 nM; against NRAS G12C, 10 to 100 nM; at KRAS WT, 1000 to 10000 nM. The IC50 lay in the range of 1000 to 10000 nM against KRAS G12V, 100 to 1000 nM against KRAS G13C and 1000 to 10000 nM on KRAS G13D. In addition, the EC50 in the experiment on AsPC-1 (K-Ras G12D) [1] was under 5000 nM.
